Assay results reported in the NIST ThermoML archive (doi:10.1021/je034093m).
Where “and” joins values, the source holds several entries; their conditions need not be identical. Equal values may be shown once.

Conditions: Capillary rise

CCC [propane]
Conditions	surface tension liquid-gas
253.08 K	12.98 mN/m
254.8 K	12.7 mN/m and 12.69 mN/m
256.89 K	12.38 mN/m
258.68 K	12.21 mN/m and 12.2 mN/m
260.71 K	11.94 mN/m and 11.97 mN/m
262.7 K	11.56 mN/m and 11.58 mN/m
265.09 K	11.31 mN/m and 11.32 mN/m
267.09 K	11.06 mN/m and 11.05 mN/m
268.88 K	10.81 mN/m
270.72 K	10.52 mN/m and 10.53 mN/m
273.2 K	10.17 mN/m
275.38 K	9.97 mN/m
277.43 K	9.71 mN/m
279.39 K	9.4 mN/m
281.48 K	9.14 mN/m and 9.15 mN/m
289.27 K	8.14 mN/m and 8.15 mN/m
293.85 K	7.49 mN/m
295.73 K	7.23 mN/m
297.4 K	7.04 mN/m
299.41 K	6.85 mN/m and 6.87 mN/m
301.45 K	6.62 mN/m
303.54 K	6.33 mN/m and 6.34 mN/m
305.17 K	6.21 mN/m and 6.22 mN/m
308.01 K	5.86 mN/m
310.73 K	5.55 mN/m
314.39 K	5.06 mN/m
315.71 K	4.85 mN/m and 4.84 mN/m
317.64 K	4.62 mN/m and 4.63 mN/m
319.43 K	4.42 mN/m
321.41 K	4.25 mN/m and 4.26 mN/m
323.34 K	4.01 mN/m and 4.02 mN/m
325.32 K	3.8 mN/m and 3.81 mN/m
327.4 K	3.6 mN/m and 3.62 mN/m
329.79 K	3.32 mN/m and 3.31 mN/m
331.79 K	3.12 mN/m and 3.13 mN/m
333.3 K	2.94 mN/m and 2.95 mN/m

CC(C)C [2-methylpropane]
Conditions	surface tension liquid-gas
255.02 K	14.85 mN/m
256.94 K	14.69 mN/m
258.83 K	14.36 mN/m and 14.37 mN/m
261.09 K	14.17 mN/m
262.95 K	14.02 mN/m and 14.03 mN/m
264.86 K	13.7 mN/m and 13.72 mN/m
267.09 K	13.46 mN/m and 13.44 mN/m
268.86 K	13.16 mN/m
270.9 K	12.95 mN/m and 12.97 mN/m
273.38 K	12.68 mN/m
275.39 K	12.57 mN/m and 12.6 mN/m
277.16 K	12.29 mN/m
279.34 K	12.06 mN/m
281.3 K	11.77 mN/m and 11.75 mN/m
283.29 K	11.62 mN/m
285.43 K	11.28 mN/m
287.5 K	11.14 mN/m and 11.13 mN/m
289.31 K	10.86 mN/m
291.65 K	10.74 mN/m and 10.72 mN/m
293.66 K	10.5 mN/m
295.75 K	10.28 mN/m
297.83 K	10.01 mN/m and 10.05 mN/m
299.48 K	9.84 mN/m
301.43 K	9.57 mN/m and 9.6 mN/m
303.91 K	9.37 mN/m and 9.38 mN/m
305.75 K	9.14 mN/m
307.41 K	8.98 mN/m
309.49 K	8.75 mN/m and 8.77 mN/m
311.81 K	8.52 mN/m and 8.51 mN/m
313.49 K	8.29 mN/m and 8.31 mN/m
315.82 K	8.05 mN/m and 8.09 mN/m
317.75 K	7.9 mN/m and 7.91 mN/m
319.32 K	7.69 mN/m and 7.68 mN/m
321.96 K	7.45 mN/m and 7.46 mN/m
323.71 K	7.25 mN/m and 7.22 mN/m
325.37 K	7.02 mN/m and 7.04 mN/m
327.8 K	6.79 mN/m and 6.81 mN/m
329.49 K	6.71 mN/m
331.68 K	6.42 mN/m
333.28 K	6.29 mN/m
